Results: PMC10218498, “Exploring BenzylethoxyAryl Urea Scaffolds for Multitarget Immunomodulation Therapies” (International Journal of Molecular Sciences, 2023)
Like-named read-outs stand apart in the source and are kept apart here.

Experiments:
HT-29 cells = assay: Cancer cell viability in monoculture and co-cultures with THP-1 by flow cytometry; assay type: cell-based, human; details: for morphological changes of HT-29 cells: 48 h co-culture with THP-1 at (1:5); for viability at 20 µM: Homo sapiens
Method: We also studied the effect of the selected compounds on tumor cell proliferation in the presence of human monocytic leukemia cell line THP-1. This assay was carried out using HT-29 as the cancer cell line and different proportions of immune cells. Standard proportions for this assay were 1:5 cancer/immune cells. Additionally, we also carried out this assay using a 2:1 proportion of cancer cells as regards immune THP-1 cells. Assays were performed after 24 and 48 h of treatment, using 20 μM doses of selected compounds and BMS-8 as the reference compound.
First, to study the effect of the compounds on the cell viability in monoculture, 10^5 of cancer cell line per well were seeded and incubated for 24 h; then, the corresponding compound at 20 μM or DMSO for the positive control were added. After 24 h of incubation, cancer cells were collected with trypsin and fixed with 4% in PBS paraformaldehyde and counted by flow cytometry.
On the other hand, to study the effect of the compounds on the cell viability in co-culture with THP-1 cells, 10^5 or 2 × 10^5 of the HT-29 cells line per well were seeded and incubated for 24 h, then the medium was changed by one cell culture medium supplemented with IFN-γ (10 ng/mL; human, Invitrogen®, Waltham, MA, USA) and containing 5 × 10^5 or 105, respectively, of THP-1 per well and the corresponding compound at 20 μM or DMSO for the positive control. After 24 h/48 h of incubation, supernatants were collected to determine THP-1 living cells. Additionally, stain cancer cells were collected with trypsin. Both types of suspension cells were fixed with 4% in PBS paraformaldehyde and counted by flow cytometry.

VEGFR-2 = VEGFR-2 (Homo sapiens, UniProt P35968); assay: VEGFR-2 relative quantification by flow cytometry in HT-29; assay type: cell-based; parameters: Both membrane and total PD-L1 and VEGFR-2 were relatively determined using DMSO-treated cells as a negative control; endogenous in cells; host or cells: HT-29; details: 24 h; for Total VEGFR-2 (%): relative to DMSO control = 100; for inhibition at 20 µM: HT-29, HT-29, 20 µM, read-out: inhibition rate of VEGFR-2
Method: For these assays, cells were incubated for 24 h in the presence of the corresponding compounds at 20 µM concentration.
(§1) To study the effect of the compounds on every biological target in cancer cell lines, the compounds were used at 20 µM dose.
(§2) For the assay, 10^5 cells per well were incubated for 24 h with the corresponding dose of the tested compound in a total volume of 500 μL of their growth media.
On the one hand, to detect total PD-L1 and VEGFR-2, after the cell treatments, they were collected and fixed with 4% in PBS paraformaldehyde.
(§3) On the other hand, to detect membrane PD-L1 and VEGFR-2, the process was the same, avoiding the treatment with 0.5% in PBS TritonTM X-100 step.

LCK = assay: Immunoblotting of OT-1 CTL signaling proteins: LCK; assay type: cell-based, mice; details: OT-1, 20 μM, 24 h
From the text: We next studied the effect of our compounds on the signaling cascade downstream of the TCR. […] However, both the expression and phosphorylation of LCK were increased in response to all compounds. The effects on ZAP70 and LAT were more complex, with opposing effects on total protein expression versus phosphorylation. Thus, all compounds modulated signaling downstream of the TCR in a manner that is likely to impact T-cell activation and activity.
CD8+ cells were obtained from the inguinal, axillary, brachial, and mesenteric lymph nodes previously collected from OT-1 mice. Lymph node cells were isolated by mashing through a […] cell strainer. Cells were resuspended in IMDM cell media at a concentration of 0.3 million cells/mL. N4 ovalbumin peptide was added at a concentration of 10 nM, and cells were incubated for 48 h at 5% CO2, 37 °C. On day 2 from recollection, cells were pelleted at 1300 rpm for 5 min and washed with PBS to remove N4 peptide. The cell pellet was resuspended in fresh IMDM media in a new flask in a 0.3 million cells/mL and supplemented with IL-2 at 20 ng/mL. After incubation for a further 48 h (day 4), cells were re-seeded in fresh IMDM media at a concentration of 0.3 million cells/mL supplemented with IL-2 at 20 ng/mL. Cells were cultured for a further 48 h prior to use on day 6 in functional assays.
To study the effect of the compounds in the signaling pathway of CTLs, the compound was incubated for 24 h at 20 μM. After this time, cells were collected and washed twice in PBS and lysed in radioimmunoprecipitation assay (RIPA) lysis buffer (50 mM tris-HCl at pH 7.4, 150 mM sodium chloride, 5 mM EGTA, 0.1% SDS, 1% NP-40, and 1% deoxycholate) supplemented with a protease and phosphatase inhibitor cocktail (mini complete ULTRA Protease tablet and phosSTOP tablet from Roche, Basel, Switzerland). Lysates were clarified by high-speed centrifugation (17,000 rpm for 15 min at 4 °C). Protein concentration was measured using a Micro BCA Protein Assay (Thermo Scientific, Waltham, MA, USA), and 10 μg to 30 μg of total protein were supplemented with 2X SDS sample buffer [tris (pH 6.8), 20% glycerol, 5% SDS, b-mercaptoethanol, and bromophenol blue) and boiled at 95 °C for 5 min. […] Bound Ab was detected by incubation with anti-rabbit and anti-mouse horseradish peroxidase secondary Ab (Cell Signaling Technology) and visualized using the Bio-Rad ChemiDoc MP Imaging System.

PD-L1 = PD-L1 (Homo sapiens, UniProt Q9NZQ7); assay: PD-L1 relative quantification by flow cytometry in A-549; assay type: cell-based; parameters: endogenous in cells; host or cells: A-549; details: A-549, 20 µM, 24 h, relative to DMSO control = 100
Method: To assess the effect of the selected compounds on the biological targets PD-L1 and VEFGR-2, we performed the study on both cancer cell lines HT-29 and A-549 and by flow cytometry technique. […] For these assays, cells were incubated for 24 h in the presence of the corresponding compounds at 20 µM concentration.
as §1, §2
On the one hand, to detect total PD-L1 and VEGFR-2, after the cell treatments, they were collected and fixed with 4% in PBS paraformaldehyde. After fixation, a treatment with 0.5% in PBS TritonTM X-100 was performed, and finally, cells were stained with FITC Mouse monoclonal Anti-Human VEGFR-2 (ab184903) and Alexa Fluor® 647 Rabbit monoclonal Anti-PD-L1 (ab215251).
as §3

[1] = HT-29 monoculture, 20 μM, read-out: cancer cell viability (%), Monocult. HT-29
[2] = co-culture 1:5 HT-29/THP-1, 20 μM, 24 h, read-out: cancer cell viability (%), 1:5 HT-29/THP-1, 24 h
[3] = co-culture 1:5 HT-29/THP-1, 20 μM, 48 h, read-out: cancer cell viability (%), 1:5 HT-29/THP-1, 48 h
[4] = co-culture 2:1 HT-29/THP-1, 20 μM, 24 h, read-out: cancer cell viability (%), 2:1 HT-29/THP-1, 24 h
[5] = co-culture 2:1 HT-29/THP-1, 20 μM, 48 h, read-out: cancer cell viability (%), 2:1 HT-29/THP-1, 48 h
[6] = co-culture (1:5) HT-29/THP-1, 24 h, 20 μM
[7] = co-culture (2:1) HT-29/THP-1, 24 h, 20 μM

VEGFR-2, sequence (P35968 20-1356): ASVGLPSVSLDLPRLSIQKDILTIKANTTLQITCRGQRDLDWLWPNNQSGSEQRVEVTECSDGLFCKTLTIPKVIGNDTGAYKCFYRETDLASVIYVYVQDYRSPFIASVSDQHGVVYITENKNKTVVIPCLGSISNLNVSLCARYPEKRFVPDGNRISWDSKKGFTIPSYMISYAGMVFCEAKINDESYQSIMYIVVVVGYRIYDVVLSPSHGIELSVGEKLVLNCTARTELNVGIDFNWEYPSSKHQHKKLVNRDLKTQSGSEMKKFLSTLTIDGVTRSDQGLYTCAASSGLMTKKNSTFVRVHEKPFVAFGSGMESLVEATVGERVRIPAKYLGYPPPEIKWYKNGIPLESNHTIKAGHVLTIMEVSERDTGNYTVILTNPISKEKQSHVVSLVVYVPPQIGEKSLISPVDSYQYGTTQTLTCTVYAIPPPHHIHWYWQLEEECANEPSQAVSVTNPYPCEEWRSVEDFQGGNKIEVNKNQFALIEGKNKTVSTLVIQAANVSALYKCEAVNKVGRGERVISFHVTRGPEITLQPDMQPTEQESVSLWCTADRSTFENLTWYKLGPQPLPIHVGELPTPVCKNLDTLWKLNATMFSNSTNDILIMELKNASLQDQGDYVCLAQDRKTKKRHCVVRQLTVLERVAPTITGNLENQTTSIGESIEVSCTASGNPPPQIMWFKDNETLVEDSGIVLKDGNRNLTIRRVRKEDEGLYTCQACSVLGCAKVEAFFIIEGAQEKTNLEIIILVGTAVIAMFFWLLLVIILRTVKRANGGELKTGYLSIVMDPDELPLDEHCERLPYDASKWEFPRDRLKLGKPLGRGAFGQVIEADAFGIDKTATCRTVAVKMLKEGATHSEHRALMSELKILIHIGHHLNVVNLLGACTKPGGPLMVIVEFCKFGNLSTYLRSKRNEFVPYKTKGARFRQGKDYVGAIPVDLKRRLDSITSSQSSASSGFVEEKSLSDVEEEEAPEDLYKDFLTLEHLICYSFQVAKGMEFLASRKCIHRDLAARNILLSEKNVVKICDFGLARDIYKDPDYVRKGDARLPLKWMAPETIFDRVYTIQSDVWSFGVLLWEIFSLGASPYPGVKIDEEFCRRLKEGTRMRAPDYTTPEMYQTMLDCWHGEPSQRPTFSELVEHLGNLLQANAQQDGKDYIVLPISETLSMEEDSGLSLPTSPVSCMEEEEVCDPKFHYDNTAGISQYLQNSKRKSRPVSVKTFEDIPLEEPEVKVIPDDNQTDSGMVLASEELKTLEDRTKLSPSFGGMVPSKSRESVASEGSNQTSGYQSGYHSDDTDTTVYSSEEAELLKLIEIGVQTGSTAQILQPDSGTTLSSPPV
PD-L1, sequence (Q9NZQ7 19-290): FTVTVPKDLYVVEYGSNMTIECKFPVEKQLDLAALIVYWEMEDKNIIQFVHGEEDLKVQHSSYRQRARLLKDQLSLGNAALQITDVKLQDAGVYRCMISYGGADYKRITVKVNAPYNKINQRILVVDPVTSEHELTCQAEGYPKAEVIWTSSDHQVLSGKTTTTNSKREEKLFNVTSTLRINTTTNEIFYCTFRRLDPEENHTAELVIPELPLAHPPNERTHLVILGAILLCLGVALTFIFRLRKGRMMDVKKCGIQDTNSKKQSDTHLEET

Total VEGFR-2 (%) (VEGFR-2; HT-29, 20 µM) | inhibition at 20 µM (VEGFR-2) | Total PD-L1 (%) (PD-L1) | inhibition rate of VEGFR-2 (VEGFR-2; HT-29, 20 µM) | Structure (SMILES) | morphological changes of HT-29 cells (HT-29 cells; 20 μM) | viability at 20 µM (HT-29 cells; [1]) | viability at 20 µM (HT-29 cells; [2]) | viability at 20 µM (HT-29 cells; [3]) | viability at 20 µM (HT-29 cells; [4]) | viability at 20 µM (HT-29 cells; [5]) | inhibition of cell viability (HT-29) (HT-29 cells; [6]) | inhibition of cell viability (HT-29) (HT-29 cells; [7]) | LCK protein expression (Western blot quantification) (LCK) | pY394-LCK protein expression (Western blot quantification) (LCK) | pY505-LCK protein expression (Western blot quantification) (LCK) | cancer cell viability (%), 2:1 HT-29/THP-1, 48 h (HT-29 cells; co-culture 2:1 HT-29/THP-1, 20 μM, 48 h)
62 ± 15% | ~50% | 107 ± 13% |  | COc1ccc(COc2cccc(NC(=O)Nc3ccc(F)cc3)c2)cc1 [Compound 2] | less confluent cultures with a few elongated fibroblast-like appearance cells | 89 ± 7% | 80 ± 4% | 102 ± 16% | 83 ± 5% | 95 ± 5% | 20% | 20% | 176 | 143 | 140 | 
86 ± 21% |  | 96 ± 29% |  | Cc1c(COc2ccc(CN3CCCCC3C(=O)O)cc2Br)cccc1-c1ccccc1 (stereo not shown) [BMS-8, reference compound] | retained this epithelial nature, resulting in an increased and brighter cytosolic granulation | 102 ± 23% | 88 ± 3% | 102 ± 12% | 106 ± 10% | 101 ± 3% |  |  |  |  |  | 
46 ± 18% | ~60% | 80 ± 7% |  | COc1ccc(COc2cccc(NC(=O)Nc3ccc(Br)cc3)c2)cc1 [Compound 8] | less confluent cultures with a few elongated fibroblast-like appearance cells | 86 ± 9% | 83 ± 13% | 106 ± 8% | 95 ± 16% | 92 ± 20% |  |  |  |  |  | 
168 ± 12% |  | 135 ± 18% | no inhibitory effect | COc1ccc(COc2cccc(NC(=O)Nc3ccc(OC)cc3)c2)cc1 [Compound 11] | less confluent cultures with a few elongated fibroblast-like appearance cells | 95 ± 21% | 86 ± 4% | 119 ± 14% | 88 ± 3% | 85 ± 11% | 20% | 20% | 168 | 184 | 157 | active

Structure (SMILES) | Total VEGFR-2 (%) (VEGFR-2; HT-29, 20 µM) | inhibition at 20 µM (VEGFR-2) | Total PD-L1 (%) (PD-L1) | inhibition rate of VEGFR-2 (VEGFR-2; HT-29, 20 µM) | morphological changes of HT-29 cells (HT-29 cells; 20 μM) | viability at 20 µM (HT-29 cells; [1]) | viability at 20 µM (HT-29 cells; [2]) | viability at 20 µM (HT-29 cells; [3]) | viability at 20 µM (HT-29 cells; [4]) | viability at 20 µM (HT-29 cells; [5]) | inhibition of cell viability (HT-29) (HT-29 cells; [6]) | inhibition of cell viability (HT-29) (HT-29 cells; [7]) | LCK protein expression (Western blot quantification) (LCK) | pY394-LCK protein expression (Western blot quantification) (LCK) | pY505-LCK protein expression (Western blot quantification) (LCK) | cancer cell viability (%), 2:1 HT-29/THP-1, 48 h (HT-29 cells; co-culture 2:1 HT-29/THP-1, 20 μM, 48 h)
COc1ccc(COc2cccc(NC(=O)Oc3ccccc3)c2)cc1 [Compound 14] | 43 ± 12% | ~60% | 141 ± 1% |  | slight loss of cell-to-cell contact and the appearance of clustered cells with irregular surfaces | 82 ± 4% | 90 ± 6% | 97 ± 5% | 88 ± 9% | 85 ± 14% |  |  | 175 | 130 | 145 | 
